These results are taken from patent EP4470536A1, “COMPOUND FOR USE IN TREATING FIBRODYSPLASIA OSSIFICANS PROGRESSIVA (FOP)” (Queen's University At Kingston, priority 2023, dated 2024).

As usually defined, the ED50 is the dose that gives a 50% effect, or the effect in half of the subjects. Read a high ED50 as weaker potency. As a reminder, the IC50 is the concentration that gives 50% inhibition.

The test system of series [1] is growth plates of juvenile FVB mice. Put plainly: Long bone growth and growth plate toxicity in juvenile mice. The settings on record: for Mean femur length (cm) / Mean tibia length (cm): oral gavage, P14-P41, juvenile FVB mice; for Mean modified Crural index: ratio of tibia over femur length.
Excerpt: A preclinical study was used to evaluate toxicity of various doses of compound 1 versus palovarotene on the growth plates of juvenile FVB mice following once daily (QD) or twice (BID) administration by oral gavage, over the juvenile development period, for 4 weeks (postnatal days 14-42 (P14-P42)). […] Resultant DICOM files were rendered in the RadiAnt viewer to obtain long bone measurements using the program's measuring tool (Figure 8A).
For a further series, the system named is RAR. Briefly: RAR transcriptional activation assay (RARE-luc MCF-7 cells). The format is cell-based. The settings on record: 0.1 nM to 10 µM, 24 hours of treatment; Figure 5. From the text: This retinoid transcriptional activity assay measures the ability of a test compound to induce expression of a RA-sensitive reporter construct. This assay utilizes MCF-7 cells stably transduced with a gene construct comprising 4 tandem RA-response elements linked to a promoter driving transcriptional expression of the firefly luciferase encoding mRNA (RARE-luc). This construct serves as a sensitive reporter of retinoid-like activity.
RARE-luc transduced MCF-7 cells were maintained in a RPMI-1640 medium containing 10% FBS. Cells were grown in 96-well plates, and treated with the test compound diluted in DMSO in duplicate at 0.1 nM, 1 nM, 10 nM, 100 nM, 1 µM and 10 µM final concentrations. As a positive control for reporter activation, cells were also treated with RA diluted in DMSO at the same concentrations. DMSO treatment alone served as a negative control. After 24 hours of treatment, cells were harvested lysis buffer (Molecular Devices, San Jose, USA) and luciferase activity in cell lysates were read using a luminometer.

Series [2] in a line: Mapping a therapeutic window (ED50 versus MTD). The format is in vivo. An excerpt:
For both palovarotene and compound 1 efficacy and toxicity were correlated to the pharmacokinetic parameters AUC (area under the curve), Cmax (maximum concentration detected following compound administration), and duration above EC50/IC50.This illustrated that efficacy was best predicted by duration above the EC50/IC50 (effective concentration for 50% response (in the case of palovarotene), or for 50% inhibition (in the case of compound 1)), whereas toxicity was best predicted by Cmax. […] For palovarotene, efficacy data from Example 7 and toxicity data from Example 8 above were compiled with mined data from the following publications: • Lindborg et al (2018). "Cartilage-derived retinoic acid-sensitive protein (CD-RAP): A stage-specific biomarker of heterotopic endochondral ossification (HEO) in fibrodysplasia ossificans progressiva (FOP)." Bone 109: 153-157. • Chakkalakal, S. A., et al. (2016). "Palovarotene Inhibits Heterotopic Ossification and Maintains Limb Mobility and Growth in Mice With the Human ACVR1(R206H) Fibrodysplasia Ossificans Progressiva (FOP) Mutation." J Bone Miner Res 31(9): 1666-1675. • Inubushi, T., et al. (2018). "Palovarotene Inhibits Osteochondroma Formation in a Mouse Model of Multiple Hereditary Exostoses." J Bone Miner Res 33(4): 658-666. • Lees-Shepard, J. B., et al. (2018). […] "Potent inhibition of heterotopic ossification by nuclear retinoic acid receptor-gamma agonists." Nat Med 17(4): 454-460.

Series [3] concerns the target T1, CYP26B1 (Homo sapiens, UniProt Q9NR63).
T1 sequence (Q9NR63 1-512): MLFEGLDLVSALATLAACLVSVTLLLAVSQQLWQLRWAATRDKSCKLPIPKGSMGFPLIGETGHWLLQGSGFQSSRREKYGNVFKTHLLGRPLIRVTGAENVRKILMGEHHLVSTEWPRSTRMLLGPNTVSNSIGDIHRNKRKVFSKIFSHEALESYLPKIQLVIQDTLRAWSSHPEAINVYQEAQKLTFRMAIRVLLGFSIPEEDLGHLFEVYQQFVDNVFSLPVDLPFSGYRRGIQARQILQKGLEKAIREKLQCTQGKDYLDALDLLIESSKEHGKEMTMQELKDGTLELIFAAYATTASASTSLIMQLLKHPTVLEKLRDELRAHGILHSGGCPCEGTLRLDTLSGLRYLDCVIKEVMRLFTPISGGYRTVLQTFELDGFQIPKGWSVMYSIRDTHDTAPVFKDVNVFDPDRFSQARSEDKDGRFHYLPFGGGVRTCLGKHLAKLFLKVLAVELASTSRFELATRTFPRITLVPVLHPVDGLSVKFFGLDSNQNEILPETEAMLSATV
Briefly: U2OS cell-based inhibitor assay (endogenous CYP26B1). To be noted: U2OS cells pre-treated with 1 µM RA for 24 hours; Figure 4. Details: This assay used a human cell type endogenously expressing the CYP26B1 enzyme; endogenous in cells; host or cells: U2OS, pre-treated with 1 µM RA for 24 hours. The method, then:
This assay used a human cell type endogenously expressing the CYP26B1 enzyme to test the ability of a compound to block RA metabolism. U2OS cells were grown in McCoy's 5A medium containing 10% fetal bovine serum (FBS) and 1X antibiotic/antimycotic cocktail. Cells grown in a T-175 culture flask at […] were treated with 1 µM RA for 24 hours to induce the expression of the CYP26B1 gene prior to the assay. Following this treatment period, cells were collected by trypsinization, washed twice in PBS, and resuspended in 7 ml of fresh culture medium. These cells were then re-plated in 48-well plates, and the assay was carried out as described for the HeLa-cell based assay.

Series [4] has as its target T1, CYP26B1. Put plainly: Microsome-based inhibitor assay (microsomes from CYP26B1-transfected HeLa cells). The format is biochemical. The settings on record: 5µg microsomal fraction, 1mM NADPH, 1 hour at 37°C; Figure 3. The method, then: This assay used cell-free microsomes to measure the ability of a test compound to inhibit the metabolism of RA. Microsomal fractions were obtained from CYP26B1 cDNA stably transfected HeLa cells by differential centrifugation of cell lysates. Assays were carried out in 48-well plates containing 5µg of microsomal fraction in Microsome Assay Buffer, containing 0.04µCi [^3H]-RA in the presence of increasing concentrations of a test compound, as described above for the HeLa cell-based assay. Reactions were initiated by addition of 1mM NADPH, and carried out for 1 hour at 37°C. Reactions were stopped, retinoids extracted, and data were collected and analyzed as described above for the HeLa cell-based assay.

Regarding `CC(C)(C)c1cccc(-c2cc3cc(/C=C/C(=O)O)ccc3[nH]2)c1` [Compound 1, (E)-3-(2-(3-(tert-butyl)phenyl)-1H-indol-5-yl)acrylic acid], the “Mean femur length (cm)” value in series [1] (3mg/kg BID) stood at 1.38 ± 0.03 cm; in series [1] (6mg/kg BID) it was 1.33 ± 0.11 cm; in series [1] (10mg/kg BID), 1.34 ± 0.06 cm; in series [1] (18mg/kg QD), 1.10 ± 0.09 cm. Besides, the “Mean tibia length (cm)” value was 1.69 ± 0.04 cm in series [1] (3mg/kg BID), 1.53 ± 0.05 cm in series [1] (6mg/kg BID), 1.70 ± 0.04 cm in series [1] (10mg/kg BID) and 1.54 ± 0.07 cm in series [1] (18mg/kg QD). Moreover, the “Mean modified Crural index” value in series [1] (3mg/kg BID) is given as 1.23 ± 0.03; in series [1] (6mg/kg BID), 1.15 ± 0.05; in series [1] (10mg/kg BID), 1.27 ± 0.06; in series [1] (18mg/kg QD), 1.40 ± 0.06. Also, the “disturbances to the growth of long bones and microarchitecture of the growth plates” value in series [1] (at doses at least equally efficacious as palovarotene, Figures 8A, 8B, 9) is “not observed”. The luciferase activity entry in the series with RAR is on record as “did not induce luciferase activity significantly”. This molecule also yielded an ED50 in series [2] (Mus musculus, BID, effective dose for 50% reduction in ectopic bone) of 4 mg/kg. In addition, in series [2] (both sexes, FVB, mouse, in vivo), the MTD at 4 weeks came to 10 mg/kg. Moreover, the IC50 at CYP26B1 [3] was 1.9 nM; against CYP26B1 [4], 5.9 nM.
